Assay results as given in patent publication US11123349B2, “Method of treatment” (The University of Melbourne, priority 2017, dated 2021).
Converted amounts (≈) assume the structure as drawn. Read-outs that look alike come from different tables or passages of the source.

Tests used:
[1] = Solubility / formulation for intravenous administration; type: physicochemical
Method: Solubility of the drugs was tested to determine their suitability for intravenous administration (this is the route of choice for the treatment of endotoxemia).

[2] = tested on: TNF production from whole blood stimulated with LPS; test: Whole blood assay: LPS-induced TNF-α production (L929 fibrosarcoma cell bioassay); type: cell-based, horse
Method: (§1) A whole blood assay was used to assess the effects of rolipram and doramapimod on cytokine production from leukocytes (white blood cells) in response to bacterial lipopolysaccharide (endotoxin).
(§2) Blood samples (10 mL; sodium citrate anticoagulant) were obtained from the six normal horses, diluted 1:1 with RPMI 1640 cell culture medium and aliquoted into 15×1 mL aliquots. Serial dilutions of rolipram and doramapimod were made from 10^−2M stock solutions in phosphate-buffered saline and DMSO, respectively, and 10 μL added to […] give final concentrations ranging from 10^−10-10^−4 Molar. The samples were then incubated with 100 ng/mL purified bacterial lipopolysaccharide (endotoxin derived from E. Coli O55:B5; purified to remove DNA and protein contaminants). After incubation for 18 hours at 37° C. in a shaking incubator, samples were centrifuged at 300 g and supernatants stored at −80° C. for cytokine analysis.
The proinflammatory cytokine, TNF-α, was measured using a L929 fibrosarcoma cell bioassay. […] The yellow tetrazole dye, 3-(4,5-dimethylthiazol-2-yl)-2,5-diphenyltetrazolium bromide (MTT), is reduced to a purple formazan compound in living cells, which is then quantified using a colorimetric plate reader (absorbance read at 570 nm with reference wavelength of 650 nm). […]
(§3) The data are expressed as % inhibition of LPS-induced cytokine production at each of the drug concentrations. […]

[3] = tested on: IL-1 production from whole blood stimulated with LPS; test: Whole blood assay: LPS-induced IL-1β production (ELISA); type: cell-based, horse
Method: as §1, §2
Plasma IL-1β concentrations were measured using an equine-specific enzyme linked immunosorbent assay (ELISA; Horse IL-1β ELISA kit, Bethyl Laboratories, Montgomery, Tex., USA). […] The optical density (OD) values of samples were determined at 450 nm using an ELISA plate reader (BioTek Synergy H1) and concentrations determined using GENS Software (version 2.00.17).
as §3

[4] = equine whole blood, LPS, 18 hours

solubility ([1]; 10% DMSO, aqueous with cosolvent or surfactant or cyclodextrin, read-out: soluble in 10% DMSO to): 1000 µg/mL (≈ 3630 µM)
solubility ([1]; water, read-out: water soluble to): 200 µg/mL (≈ 726 µM)
IC50 ([2]; Equus caballus, L929, equine whole blood diluted 1:1 with RPMI 1640, LPS, 18 hours at 37° C., read-out: IC50, inhibition of TNFa production): 653 nM
IC50 ([3]; Equus caballus, equine whole blood diluted 1:1 with RPMI 1640, LPS, 18 hours at 37° C., read-out: IC50, inhibition of IL-1 production): 1020 nM
Compound: COc1ccc(C2CNC(=O)C2)cc1OC1CCCC1 (stereo not drawn) [rolipram]
inhibition of TNFa production at high concentrations [2, 4]: ~100%
maximum inhibition of IL-1 production [3, 4]: 39.5±7.1%
